Results taken from PMC3768135 (Bioorganic & medicinal chemistry, 2013).

Columns and labels:
EcFtsZ = EcFtsZ (Escherichia coli, UniProt P0A9A6); experiment: GTPase assay, malachite green phosphate detection; format: biochemical
SaFtsZ = SaFtsZ (Staphylococcus aureus, UniProt P0A031); experiment: GTPase assay, malachite green phosphate detection; format: biochemical
BsFtsZ = target: T1, BsFtsZ (Bacillus subtilis, UniProt P17865); experiment: fluorescence anisotropy titration with FtsZ; format: binding
T1 sequence (P17865 1-382): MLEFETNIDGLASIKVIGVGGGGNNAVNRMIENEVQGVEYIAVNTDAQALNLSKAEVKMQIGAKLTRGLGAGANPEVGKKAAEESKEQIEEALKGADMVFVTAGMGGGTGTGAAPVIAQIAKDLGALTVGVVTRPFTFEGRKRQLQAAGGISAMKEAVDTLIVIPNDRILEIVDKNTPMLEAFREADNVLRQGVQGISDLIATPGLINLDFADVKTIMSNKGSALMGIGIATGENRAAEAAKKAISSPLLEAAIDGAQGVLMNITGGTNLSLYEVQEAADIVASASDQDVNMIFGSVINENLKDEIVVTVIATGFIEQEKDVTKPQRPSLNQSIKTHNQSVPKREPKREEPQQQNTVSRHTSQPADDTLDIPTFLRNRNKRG

Chain of EcFtsZ (P0A9A6 whole entry): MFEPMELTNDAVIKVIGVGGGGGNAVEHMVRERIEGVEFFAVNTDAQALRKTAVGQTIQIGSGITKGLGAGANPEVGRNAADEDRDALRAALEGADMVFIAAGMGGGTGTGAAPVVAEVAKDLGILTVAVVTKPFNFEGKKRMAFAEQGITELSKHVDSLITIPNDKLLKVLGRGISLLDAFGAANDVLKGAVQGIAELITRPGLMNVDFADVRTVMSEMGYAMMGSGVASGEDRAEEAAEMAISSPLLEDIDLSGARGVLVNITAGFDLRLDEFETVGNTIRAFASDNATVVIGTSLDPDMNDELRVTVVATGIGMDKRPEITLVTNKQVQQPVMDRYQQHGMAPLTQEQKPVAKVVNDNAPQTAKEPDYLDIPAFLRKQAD
Chain of SaFtsZ (P0A031 whole entry): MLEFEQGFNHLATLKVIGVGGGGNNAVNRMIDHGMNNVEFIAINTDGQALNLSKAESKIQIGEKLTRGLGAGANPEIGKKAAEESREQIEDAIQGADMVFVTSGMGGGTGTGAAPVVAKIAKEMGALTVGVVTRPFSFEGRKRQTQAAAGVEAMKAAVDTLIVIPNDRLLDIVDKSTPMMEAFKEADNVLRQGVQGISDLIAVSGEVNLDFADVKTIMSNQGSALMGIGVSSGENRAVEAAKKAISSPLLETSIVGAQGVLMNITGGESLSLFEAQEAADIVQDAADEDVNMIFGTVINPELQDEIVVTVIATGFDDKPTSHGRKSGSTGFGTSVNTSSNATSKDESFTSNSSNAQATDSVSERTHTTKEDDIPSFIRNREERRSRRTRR

Substance	IC50 (EcFtsZ)	IC50 (SaFtsZ)	Ka (BsFtsZ)
hemi-chrysophaentin [compound 2]	37 ± 7 µM	38 ± 9 µM	
mant-GTP			(9.9 ± 0.5) × 10^5 (Ka) M^−1
